Reference: ChEMBL document CHEMBL1201862, “PubChem BioAssay data set” (2004)
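Where inhibition never reached the appropriate level, the endpoint shown equals the highest concentration tested. Otherwise, values were interpolated linearly from a five-concentration, 48-hour dose response in 96-well plates. GI50 marks 50% less growth.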 Activity calls are given as the source filed them. Rule as the data show it: active = GI50 up to about 1.1 µM and inactive = higher.

How the values were obtained:
Experiment in all cases: NCI-60 cell line screen, 48 h
UACC-62 = system: UACC-62
BT-549 = system: BT-549
OVCAR-8 = system: OVCAR-8
UO-31 = system: UO-31
HOP-92 = system: HOP-92
HCT-15 = system: HCT-15
IGROV-1 = system: IGROV-1
Hs-578T = system: Hs-578T
SNB-19 = system: SNB-19
SK-OV-3 = system: SK-OV-3
RPMI-8226 = system: RPMI-8226
COLO 205 = system: COLO 205
TK-10 = system: TK-10
NCI-H460 = system: NCI-H460
OVCAR-5 = system: OVCAR-5
ACHN = system: ACHN
SF-268 = system: SF-268
NCI/ADR-RES = system: NCI/ADR-RES
SN12C = system: SN12C
K562 = system: K562
SK-MEL-28 = system: SK-MEL-28
SF-295 = system: SF-295
MDA-MB-231 = system: MDA-MB-231
PC-3 = system: PC-3
CAKI-1 = system: CAKI-1
KM12 = system: KM12
M14 = system: M14
SW-620 = system: SW-620
DU-145 = system: DU-145
A498 = system: A498
LOX IMVI = system: LOX IMVI
U-251 = system: U-251
NCI-H226 = system: NCI-H226
NCI-H522 = system: NCI-H522
RXF 393 = system: RXF 393
HT-29 = system: HT-29
MDA-MB-435 = system: MDA-MB-435
HCC 2998 = system: HCC 2998
Malme-3M = system: Malme-3M
SK-MEL-5 = system: SK-MEL-5
OVCAR-4 = system: OVCAR-4
MDA-N = system: MDA-N
MCF7 = system: MCF7
UACC-257 = system: UACC-257
786-0 = system: 786-0
SNB-75 = system: SNB-75
SK-MEL-2 = system: SK-MEL-2
A549 = system: A549
NCI-H23 = system: NCI-H23
SF-539 = system: SF-539
HOP-62 = system: HOP-62
EKVX = system: EKVX
OVCAR-3 = system: OVCAR-3
HCT-116 = system: HCT-116
T47D = system: T47D
CCRF-CEM = system: CCRF-CEM
HL-60 = system: HL-60
SR = system: SR
MOLT-4 = system: MOLT-4

`CC1=CC(C)(C)Nc2ccc(CSc3ccccc3)cc21` was tested, and the GI50 (UACC-62) was 41.1 µM (inactive), the GI50 (BT-549) was 59.2 µM (inactive) and the GI50 (OVCAR-8) was 46.2 µM (inactive). For the same compound, the GI50 (UO-31) was 22.1 µM (inactive), the GI50 (HOP-92) was 34.8 µM (inactive) and the GI50 (HCT-15) was 30.9 µM. For the same compound, the GI50 (IGROV-1) was 52.1 µM (inactive), the GI50 (Hs-578T) was 38.3 µM (inactive) and the GI50 (SNB-19) was 37.7 µM (inactive). The GI50 (SK-OV-3) was 31.3 µM (inactive), the GI50 (RPMI-8226) was 14.9 µM (inactive) and the GI50 (COLO 205) was 22 µM (inactive). The GI50 (TK-10) was 39.5 µM (inactive), the GI50 (NCI-H460) was 24.9 µM (inactive) and the GI50 (OVCAR-5) was 14.9 µM (inactive). The GI50 (ACHN) was 46.6 µM (inactive), the GI50 (SF-268) was 35.3 µM (inactive) and the GI50 (NCI/ADR-RES) was 41.9 µM (inactive). For the same compound, the GI50 (SN12C) was 19.1 µM (inactive), the GI50 (K562) was 18 µM (inactive) and the GI50 (SK-MEL-28) was 37.8 µM (inactive). For the same compound, the GI50 (SF-295) was 20 µM (inactive), the GI50 (MDA-MB-231) was 32.9 µM (inactive) and the GI50 (PC-3) was 28.9 µM (inactive). The GI50 (CAKI-1) was 36.1 µM (inactive), the GI50 (KM12) was 26.2 µM (inactive) and the GI50 (M14) was 26.6 µM (inactive). For the same compound, the GI50 (SW-620) was 23 µM (inactive), the GI50 (DU-145) was 22.8 µM (inactive) and the GI50 (A498) was 24.1 µM (inactive). For the same compound, the GI50 (LOX IMVI) was 30.7 µM (inactive), the GI50 (U-251) was 31.8 µM (inactive) and the GI50 (NCI-H226) was 48.4 µM (inactive). The GI50 (NCI-H522) was 16.8 µM (inactive), the GI50 (RXF 393) was 16.3 µM (inactive) and the GI50 (HT-29) was 16.1 µM (inactive). For the same compound, the GI50 (MDA-MB-435) was 25.3 µM (inactive), the GI50 (HCC 2998) was 17.2 µM (inactive) and the GI50 (Malme-3M) was 17.9 µM (inactive). The GI50 (SK-MEL-5) was 17.1 µM (inactive), the GI50 (OVCAR-4) was 21.1 µM (inactive) and the GI50 (MDA-N) was 22 µM (inactive). The GI50 (MCF7) was 22 µM (inactive), the GI50 (UACC-257) was 26.7 µM (inactive) and the GI50 (786-0) was 23.2 µM (inactive). For the same compound, the GI50 (SNB-75) was 24.7 µM (inactive), the GI50 (SK-MEL-2) was 23.4 µM (inactive) and the GI50 (A549) was 21.1 µM (inactive). The GI50 (NCI-H23) was 32.6 µM (inactive), the GI50 (SF-539) was 44.8 µM (inactive) and the GI50 (HOP-62) was 29.7 µM (inactive). For the same compound, the GI50 (EKVX) was 22.1 µM (inactive), the GI50 (OVCAR-3) was 18.7 µM (inactive) and the GI50 (HCT-116) was 26.4 µM (inactive).
`CNC(=S)NNc1ncnc2c1c(-c1ccc(Cl)cc1)cn2-c1ccc(C)cc1` was tested, and the GI50 (UACC-62) was 14.5 µM (inactive), the GI50 (BT-549) was 14.2 µM (inactive) and the GI50 (OVCAR-8) was 9.48 µM (inactive). The GI50 (UO-31) was 10.9 µM (inactive), the GI50 (HOP-92) was 15.5 µM (inactive) and the GI50 (HCT-15) was 8.39 µM. For the same compound, the GI50 (T47D) was 8.49 µM (inactive), the GI50 (IGROV-1) was 10.4 µM (inactive) and the GI50 (Hs-578T) was 20.9 µM (inactive). The GI50 (SNB-19) was 17.6 µM (inactive), the GI50 (SK-OV-3) was 15 µM (inactive) and the GI50 (RPMI-8226) was 3.13 µM (inactive). The GI50 (COLO 205) was 14.3 µM (inactive), the GI50 (CCRF-CEM) was 0.897 µM (active) and the GI50 (TK-10) was 18.8 µM (inactive). For the same compound, the GI50 (NCI-H460) was 1.95 µM (inactive), the GI50 (OVCAR-5) was 14.7 µM (inactive) and the GI50 (ACHN) was 10 µM (inactive). The GI50 (SF-268) was 10.2 µM (inactive), the GI50 (NCI/ADR-RES) was 11.6 µM (inactive) and the GI50 (SN12C) was 11.1 µM (inactive). The GI50 (K562) was 3.2 µM (inactive), the GI50 (SK-MEL-28) was 11.4 µM (inactive) and the GI50 (SF-295) was 6.05 µM (inactive). For the same compound, the GI50 (MDA-MB-231) was 7.8 µM (inactive), the GI50 (PC-3) was 5.45 µM (inactive) and the GI50 (CAKI-1) was 8.07 µM (inactive). For the same compound, the GI50 (KM12) was 7.71 µM (inactive), the GI50 (M14) was 12.6 µM (inactive) and the GI50 (SW-620) was 6.67 µM (inactive). For the same compound, the GI50 (DU-145) was 14.8 µM (inactive), the GI50 (A498) was 20.8 µM (inactive) and the GI50 (LOX IMVI) was 9.38 µM (inactive). The GI50 (U-251) was 11.1 µM (inactive), the GI50 (NCI-H226) was 24.6 µM (inactive) and the GI50 (HL-60) was 2.81 µM (inactive). For the same compound, the GI50 (NCI-H522) was 7.76 µM (inactive), the GI50 (RXF 393) was 16.4 µM (inactive) and the GI50 (SR) was 2.21 µM (inactive). The GI50 (HT-29) was 14.9 µM (inactive), the GI50 (MDA-MB-435) was 8.34 µM (inactive) and the GI50 (Malme-3M) was 13.1 µM (inactive). For the same compound, the GI50 (SK-MEL-5) was 5.89 µM (inactive), the GI50 (OVCAR-4) was 15.6 µM (inactive) and the GI50 (MDA-N) was 8.61 µM (inactive). The GI50 (UACC-257) was 12.9 µM (inactive), the GI50 (786-0) was 9.18 µM (inactive) and the GI50 (SK-MEL-2) was 13.6 µM (inactive). The GI50 (A549) was 4.67 µM (inactive), the GI50 (NCI-H23) was 13.2 µM (inactive) and the GI50 (SF-539) was 16 µM (inactive). For the same compound, the GI50 (HOP-62) was 17.6 µM (inactive), the GI50 (EKVX) was 13.8 µM (inactive) and the GI50 (MOLT-4) was 3.85 µM (inactive). The GI50 (OVCAR-3) was 11.5 µM (inactive) and the GI50 (HCT-116) was 4.57 µM (inactive).
